Marks after values point to notes of the source that are not given here.

The nature of the first series: LogP by HPLC on reversed phase columns (EEC directive 79/831 Annex V.A8).
Details: not given
Type of series: physicochemical. On the procedure:
[table] If more than one Log P value is available within the same method, all the values are given and separated by “+”. […] Lambda-max-values were determined using UV-spectra from 200 nm to 400 nm and the peak values of the chromatographic signals.
For the molecule `OC(Cn1cncn1)(c1ccc(F)cc1F)C1(Oc2c(F)cc(F)cc2F)CC1` (stereo not shown) [Example I-02, 1-(2,4-difluorophenyl)-2-(1H-1,2,4-triazol-1-yl)-1-[1-(2,4,6-trifluorophenoxy)cyclopropyl]ethanol], the LogP is 3.10^[b].

`CC(=O)OC(Cn1cncn1)(c1ccc(F)cc1F)C1(Oc2c(F)cc(F)cc2F)CC1` (stereo not shown) [Example I-04, 1-(2,4-difluorophenyl)-2-(1H-1,2,4-triazol-1-yl)-1-[1-(2,4,6-trifluorophenoxy)cyclopropyl]ethyl acetate]: the LogP is 3.29^[b].

Staying with this series, now noted: LogP.
`OC(Cn1cncn1)(c1ccc(F)cc1F)C1(Oc2c(F)cc(F)cc2F)CC1` (stereo not shown) [Example I-02, 1-(2,4-difluorophenyl)-2-(1H-1,2,4-triazol-1-yl)-1-[1-(2,4,6-trifluorophenoxy)cyclopropyl]ethanol] displayed a chromatographic logP of 3.11. The same measure, in the same setting: the figure for `CC(=O)OC(Cn1cncn1)(c1ccc(F)cc1F)C1(Oc2c(F)cc(F)cc2F)CC1` (stereo not shown) [Example I-04, 1-(2,4-difluorophenyl)-2-(1H-1,2,4-triazol-1-yl)-1-[1-(2,4,6-trifluorophenoxy)cyclopropyl]ethyl acetate] is 3.32.

The same series, now with this note: method [a]: LC-UV, acidic range, 0.1% formic acid in water and acetonitrile as eluent.
In the case of `Fc1ccc(C2(C3(Oc4c(Cl)cc(OC(F)(F)F)cc4Cl)CC3)CO2)c(F)c1` (racemic) [Example V-05], the LogP is 5.62^[a]. Regarding `Fc1ccc(C2(C3(Oc4c(F)ccc(Cl)c4F)CC3)CO2)c(F)c1` (racemic) [Example V-06], the LogP was 4.65^[a]. Same read-out and setting: for `Fc1ccc(C2(C3(Oc4c(Cl)cc(Cl)cc4Cl)CC3)CO2)c(F)c1` (racemic) [Example V-07] the value was 5.56^[a]. In the case of `Fc1ccc(C2(C3(Oc4c(Cl)cc(Br)cc4Cl)CC3)CO2)c(F)c1` (racemic) [Example V-08], the LogP is 5.72^[a].

For `Fc1ccc(C2(C3(Oc4c(Cl)ccc(Cl)c4Cl)CC3)CO2)c(F)c1` (racemic) [Example V-09], the LogP is 5.27^[a]. `Fc1ccc(C2(C3(Oc4c(F)ccc(F)c4F)CC3)CO2)c(F)c1` (racemic) [Example V-10]: the LogP was 4.20^[a]. Take `Fc1ccc(C2(C3(Oc4c(Cl)cc(C(F)(F)F)cc4Cl)CC3)CO2)c(F)c1` (racemic) [Example V-11]: the LogP is 5.51^[a]. Take `OC(Cn1cncn1)(c1ccc(F)cc1F)C1(Oc2c(F)cc(Cl)cc2F)CC1` (single isomer, unassigned) [Example I-19]: the LogP is 3.55^[a]. As for `OC(Cn1cncn1)(c1ccc(F)cc1F)C1(Oc2c(F)cc(Cl)cc2F)CC1` (single isomer, unassigned) [Example I-20], the LogP is 3.55^[a]. For the molecule `OC(Cn1cncn1)(c1ccc(F)cc1F)C1(Oc2c(F)cc(Br)cc2F)CC1` (single isomer, unassigned) [Example I-21], the LogP is 3.63^[a]. `OC(Cn1cncn1)(c1ccc(F)cc1F)C1(Oc2c(F)cc(Br)cc2F)CC1` (single isomer, unassigned) [Example I-22]: the LogP was 3.63^[a]. Consider `Fc1ccc(C2(C3(Oc4c(Cl)cc(F)cc4Cl)CC3)CO2)c(F)c1` (stereo not shown) [Example V-12], for which the LogP is 4.98^[a]. Turning to `Fc1ccc(C2(C3(Oc4c(Cl)cc(SC(F)(F)F)cc4Cl)CC3)CO2)c(F)c1` (stereo not shown) [Example V-13], the LogP is 6.07^[a]. The same measure, in the same setting: the figure for `Fc1cc(Cl)ccc1C1(C2(Oc3c(F)cc(Cl)cc3F)CC2)CO1` (stereo not shown) [Example V-14] is 5.23^[a]; for `Fc1cc(F)c(OC2(C3(c4ccc(Cl)cc4F)CO3)CC2)c(F)c1` (stereo not shown) [Example V-15] it is 4.72^[a]. Turning to `Fc1ccc(C2(C3(Oc4ccc(F)c(F)c4F)CC3)CO2)c(F)c1` (stereo not shown) [Example V-16], the LogP was 4.28^[a].

For the molecule `Fc1ccc(C2(C3(Oc4cc(F)c(F)cc4F)CC3)CO2)c(F)c1` (stereo not shown) [Example V-17], the LogP was 4.10^[a]. Take `Fc1ccc(C2(C3(Oc4cc(F)c(Br)c(F)c4)CC3)CO2)c(F)c1` (stereo not shown) [Example V-18]: the LogP was 4.86^[a]. With `Fc1ccc(C2(C3(Oc4c(F)ccc(F)c4Cl)CC3)CO2)c(F)c1` (stereo not shown) [Example V-19], the LogP is 4.35^[a]. For `O=C(c1ccc(F)cc1F)C1(Oc2c(F)cc(Cl)cc2F)CC1` [IV-2], the LogP is 4.44^[a]. Still for that read-out and setting: the figure for `O=C(c1ccc(F)cc1F)C1(Oc2c(F)cc(Br)cc2F)CC1` [IV-3] is 4.54^[a].

Consider `O=C(c1ccc(F)cc1F)C1(Oc2c(Cl)cc(Cl)cc2Cl)CC1` [IV-4], for which the LogP was 5.34^[a]. For `O=C(c1ccc(F)cc1F)C1(Oc2c(Cl)cc(F)cc2Cl)CC1` [IV-5], the LogP is 4.76^[a]. In the case of `O=C(c1ccc(F)cc1F)C1(Oc2c(F)ccc(F)c2F)CC1` [IV-6], the LogP is 3.99^[a].

As for `O=C(c1ccc(F)cc1F)C1(Oc2c(Cl)cc(Br)cc2Cl)CC1` [IV-7], the LogP was 5.01^[a]. On to `O=C(c1ccc(F)cc1F)C1(Oc2c(Cl)ccc(Cl)c2Cl)CC1` [IV-8], for which the LogP is 5.03^[a].

For `O=C(c1ccc(F)cc1F)C1(Oc2c(F)ccc(Cl)c2F)CC1` [IV-9], the LogP was 4.27^[a]. Still for that read-out and setting: the figure for `O=C(c1ccc(F)cc1F)C1(Oc2cc(F)c(F)c(F)c2)CC1` [IV-10] is 4.20^[a]; for `O=C(c1ccc(F)cc1F)C1(Oc2c(Cl)cc(C(F)(F)F)cc2Cl)CC1` [IV-11] it is 5.25^[a]; for `O=C(c1ccc(F)cc1F)C1(Oc2c(Cl)cc(OC(F)(F)F)cc2Cl)CC1` [IV-12] it is 5.39^[a].

Regarding `O=C(c1ccc(F)cc1F)C1(Oc2c(Cl)cc(SC(F)(F)F)cc2Cl)CC1` [IV-13], the LogP was 5.85^[a]. The same measure, in the same setting: for `N#Cc1cc(Cl)c(OC2(C(=O)c3ccc(F)cc3F)CC2)c(Cl)c1` [IV-14] the value was 4.15^[a]. The same measure, in the same setting: for `O=C(c1ccc(Cl)cc1F)C1(Oc2c(F)cc(F)cc2F)CC1` [IV-15] the value was 4.49^[a]; for `O=C(c1ccc(Cl)cc1F)C1(Oc2c(F)cc(Cl)cc2F)CC1` [IV-16], 5.03^[a]; for `O=C(c1ccc(F)cc1F)C1(Oc2ccc(F)c(F)c2F)CC1` [IV-17], 4.01^[a]. In the case of `O=C(c1ccc(F)cc1F)C1(Oc2cc(F)c(F)cc2F)CC1` [IV-18], the LogP is 3.94^[a]. Turning to `O=C(c1ccc(F)cc1F)C1(Oc2cc(F)c(Br)c(F)c2)CC1` [IV-19], the LogP was 4.54^[a]. Regarding `O=C(c1ccc(F)cc1F)C1(Oc2c(F)ccc(F)c2Cl)CC1` [IV-20], the LogP was 4.25^[a].

Turning to `O=C(c1ccc(Cl)cc1F)C1(Oc2c(F)cc(Br)cc2F)CC1` [IV-21], the LogP was 5.05^[a].

Staying with this series, now noted: reversed phase HPLC column, method [a]: LC-UV, acidic range, 0.1% formic acid in water and acetonitrile as eluent; read-out: LogP.
Turning to `Fc1ccc(C2(C3(Oc4c(F)cc(F)cc4F)CC3)CO2)c(F)c1` (stereo not shown) [Example V-01, 2-(2,4-difluorophenyl)-2-[1-(2,4,6-trifluorophenoxy)cyclopropyl]oxirane], the chromatographic logP is 4.26.

`O=C(c1ccc(F)cc1F)C1(Oc2c(F)cc(F)cc2F)CC1` [IV-1, (2,4-difluorophenyl)[1-(2,4,6-trifluorophenoxy)cyclopropyl]methanone]: the chromatographic logP is 3.96.

Still in this series, the particulars now being: reversed phase HPLC column, method [b]: LC-UV, neutral range, 0.001 molar ammonium acetate solution in water and acetonitrile as eluent; read-out: LogP.
As for `Fc1ccc(C2(C3(Oc4c(F)cc(F)cc4F)CC3)CO2)c(F)c1` (stereo not shown) [Example V-01, 2-(2,4-difluorophenyl)-2-[1-(2,4,6-trifluorophenoxy)cyclopropyl]oxirane], the chromatographic logP turned out to be 4.26.

Source of the values: US20180057467A1, “NOVEL TRIAZOLE DERIVATIVES” (BAYER CROPSCIENCE AKTIENGESELLSCHAFT, priority 2015, published 2018).
